From patent publication US20230398112A1, “SPRAY-DRIED METAL-ORGANIC FRAMEWORKS FOR TREATMENT AND/OR DIAGNOSIS OF PULMONARY DISEASE” (priority 2020, published 2023)

Key:
[1] = Thermogravimetric analysis (TGA), thermal stability; assay type: physicochemical; details: under air at 3° C./min
Experimental: The loss of ca 10 wt. % below 100° C. is attributable to crystallized water leading to a dark blue anhydrous Cu(POA)2 crystalline phase, which can also be instantaneously obtained by exposing the hydrated phase to various organic solvents (i.e. MeOH, EtOH and DMF). […] Fourier-transform infrared spectroscopy (FTIR) analysis also clearly distinguishes between the two phases, as an absorption band attributed to coordinated water at 3.400 cm^−1 can be seen for the hydrated form in FIG. 1D.

Mtb = details: delivered orally; cited from earlier work

O=C(O)c1cnccn1 [POA, pyrazinoic acid]
thermal stability (TGA) [1]: 100-200 °C | efficacy as TB therapy (Mtb): ineffective
